Measurements from ChEMBL document CHEMBL1156829 (Proc Natl Acad Sci U S A, 2008).

Legend:
[1] = NOVARTIS: Cytotoxicity against human hepatocellular carcinoma cell line (Huh7); format: toxicity, cell-based, Huh-7; conditions: Huh7 cells (hepatocellular carcinoma cell line)
[2] = test system: Plasmodium falciparum; experiment: NOVARTIS: Inhibition of Plasmodium falciparum 3D7 (drug-susceptible) proliferation in erythrocyte-based infection assay; format: functional, organism-based; conditions: Plasmodium falciparum, 3D7
[3] = test system: Plasmodium falciparum; experiment: NOVARTIS: Inhibition of Plasmodium falciparum W2 (drug-resistant) proliferation in erythrocyte-based infection assay; format: functional, organism-based; conditions: Plasmodium falciparum, W2; read-out: EC50

Structure (SMILES)	CC50 [1]	EC50 [2]	EC50 [3]
Cc1ccc(Nc2nc(NCc3ccccc3)c3ccccc3n2)cc1	10900 nM	184 nM	241 nM
CCCC(=O)N(CCCC(C)Nc1cc(OC)cc2cccnc12)Cc1ccc(F)cc1 (stereo not given)	> 10000 nM	385 nM	71.4 nM
Cc1c(Cl)cccc1NC(=S)N1CCCN(c2ccc(C(F)(F)F)cc2[N+](=O)[O-])CC1	51400 nM	254 nM	202 nM
S=C(NN=CC=NNC(=S)Nc1ccccc1)Nc1ccccc1	15000 nM	1040 nM	288 nM
O=C(NCc1ccco1)c1ccc(OC2CCN(CC3CCCCC3)CC2)c(Cl)c1	23500 nM	95.1 nM	23.6 nM
O=C(NCc1cccs1)c1ccc(OC2CCN(CC3CCCCC3)CC2)c(Cl)c1	> 10000 nM	719 nM	44.6 nM
Oc1ccc(C=NN=C(Nc2ccccn2)c2ccccn2)c(O)c1	> 245 nM	> 1250 nM	> 674 nM
O=C1C(Nc2ccccc2)=C(n2nnc3ccccc32)C(=O)c2ccccc21	6300 nM	2020 nM	259 nM
O=C(Nc1ccc(C2=NCCN2)cc1)c1cccc2c(C(=O)Nc3ccc(C4=NCCN4)cc3)cccc12	> 10000 nM	83.9 nM	397 nM
Cn1c(=O)c(Cl)c2c3c(c(Cl)ccc31)C(=O)c1ccccc1-2	> 10000 nM	> 297 nM	> 1250 nM
COc1ccc(NC(=O)C2=C(C)NC(=S)NC2c2ccc(O)cc2)cc1 (stereo not given)	> 10000 nM	1420 nM	342 nM
O=C(Nc1ccc(NC(=O)c2ccc(C3=NCCCN3)cc2)cc1)Nc1ccc(C2=NCCCN2)cc1	> 10000 nM	115 nM	148 nM
CCCCOc1ccc(C(O)C(CN2CCCCC2)c2ccccc2)cc1 (stereo not given)	39300 nM	835 nM	591 nM
CN(C)c1ccc(NC=CC(=O)C(C)(C)C)cc1	36900 nM	1050 nM	282 nM
COC(=O)c1sccc1S(=O)(=O)N1CCCC(c2[nH]ncc2-c2ccccc2)C1 (stereo not given)	> 100000 nM	3030 nM	3440 nM
CCOC(=O)C1=C(C)N=c2sc(=Cc3cc(Cl)ccc3O)c(=O)n2C1c1ccc2c(c1)OCO2 (stereo not given)	> 100000 nM	4930 nM	1310 nM
COC(=O)C1=C(C)N/C(=C\c2cc(C)n(-c3cc(C)ccc3C)c2C)C1=O	> 10000 nM	12.4 nM	15.1 nM
COC(=O)c1ccnn(-c2ccccc2)c1=O	12900 nM	> 1690 nM	319 nM

Structure (SMILES)	CC50 [1]	EC50 [2]	EC50 [3]
C=CCSc1nc(Sc2ccc(Cl)cc2)c2sc3ccccc3c2n1	> 10000 nM	> 1250 nM	> 642 nM
COc1cnc(-c2ccccn2)nc1NC(C)C	2500 nM	712 nM	1100 nM
Cc1ccc(Cl)cc1-n1c(SCc2ccccc2)nnc1C(Cc1ccccc1)NC(=O)C12CC3CC(CC(C3)C1)C2 (stereo not given)	1130 nM	> 1250 nM	> 954 nM
CSc1nnc(CN2CCSCC2)n1C	> 10000 nM	2030 nM	> 1250 nM
Oc1ccccc1Nc1nc(-c2ccccc2O)nc2ccccc12	> 100000 nM	577 nM	136 nM
c1cc2cc(CN3CCc4nc(N5CCCCC5)sc4C3)ccc2[nH]1	> 10000 nM	410 nM	326 nM
CCCCC(CC)C(=O)N(C)CCCNc1ccnc2cc(Cl)ccc12 (stereo not given)	> 9260 nM	514 nM	233 nM
CN(C)c1ccc(NC(=O)c2cccnc2C(=O)O)cc1	7840 nM	320 nM	841 nM
CCOC(=O)C1=C(C)NC(=Cc2cc(C)n(-c3ccc(C)cc3)c2C)C1=O	> 100000 nM	121 nM	169 nM
Cc1nc2ccccn2c1C1(O)C(=O)Nc2c(Cl)cc(Cl)cc21 (stereo not given)	> 10000 nM	449 nM	178 nM
COc1ccc(CCN2C(=O)CC(C(=O)Nc3cccc(Cl)c3)SC2=Nc2ccccc2)cc1OC (stereo not given)	> 100000 nM	3820 nM	2840 nM
CCN(CC)C(=O)COc1ccccc1CNCc1ccccc1	> 10000 nM	> 1250 nM	1440 nM
CCOC(=O)c1c(NC(=O)c2ccccc2)sc2c(O)c(CN(CC)CC)ccc12	> 46800 nM	267 nM	8.44 nM
CC(C)c1ccc2c(c1)c1c3c([n+](C)ccn32)CCC1	31800 nM	1720 nM	2630 nM
COc1ccc(OC)c(-c2ccc(O)c(CNCCc3ccccc3F)c2)c1	> 10000 nM	1140 nM	790 nM
Cc1ccccc1CSc1ccc(-c2cccs2)nn1	> 10000 nM	> 1060 nM	963 nM
Cn1c(C(C#N)C(=S)NC2CCCCC2)nc2cccnc21 (stereo not given)	> 10000 nM	> 1250 nM	> 894 nM
